In US5968487A (L'Oreal, priority 1996, dated 1999):

Target: T1, human melanocyte tyrosinase (Homo sapiens, UniProt P14679)
T1 construct: endogenous in cells; host or cells: cultured human melanocytes (Triton X-100 / ultrasound extract after 3 days' culture with the compound)
T1 sequence (P14679 19-529): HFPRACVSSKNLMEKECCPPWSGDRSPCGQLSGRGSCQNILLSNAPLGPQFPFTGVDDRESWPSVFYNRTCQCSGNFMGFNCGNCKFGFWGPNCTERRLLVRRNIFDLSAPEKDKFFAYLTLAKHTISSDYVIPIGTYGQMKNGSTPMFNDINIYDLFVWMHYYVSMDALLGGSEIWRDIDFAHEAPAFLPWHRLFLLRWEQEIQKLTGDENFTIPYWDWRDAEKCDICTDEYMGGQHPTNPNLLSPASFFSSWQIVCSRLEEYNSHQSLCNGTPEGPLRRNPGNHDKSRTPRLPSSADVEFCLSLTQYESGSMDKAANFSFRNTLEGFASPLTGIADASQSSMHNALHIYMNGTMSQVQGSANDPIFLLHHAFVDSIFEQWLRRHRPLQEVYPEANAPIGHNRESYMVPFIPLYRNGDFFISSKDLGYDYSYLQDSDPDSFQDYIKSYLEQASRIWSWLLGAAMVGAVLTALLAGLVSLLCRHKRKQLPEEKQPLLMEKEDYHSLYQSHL
Assay: dopa-oxidase activity of human melanocyte tyrosinase after 3-day culture of melanocytes with the compound
Format: cell-based
Conditions: human melanocytes cultured three days with compound; lysate + 5 mM L-dopa, absorbance at 475 nm (dopachrome), 25° C., 60 minutes; read-out: IC50, concentration of active product required to obtain a 50% inhibition of the production of melanin
Description: After three days, the melanocytes were "trypsinized" in a mixture of trypsin/0.05% EDTA/0.02% in a phosphate buffer (50 mM at pH 6.8), washed three times in phosphate buffer containing 1% (w/v) Triton X-100 and subjected to ultrasound. After centrifugation, samples were taken and mixed with 5 mM L-dopa in phosphate buffer. The tyrosinase activity was evaluated by spectrophotometry by measuring the increase in the absorbance at 475 nm due to the formation of dopachrome from 5 mM dopa. The absorbance was read on a microplate reader at 25° C. for 60 minutes.
The activity of the cellular tyrosinase is measured relative to a standard range prepared with commercial tyrosinase.
The value of IC50, i.e., the concentration of active product required to obtain a 50% inhibition of the production of melanin, is determined.

- IC50: 200 to 300 µM
Structure (SMILES): O=C1NC(C(=O)OCc2cc(=O)c(O)co2)CS1 (stereo not shown) [5-hydroxy-4-oxo-4H-pyran-2-ylmethyl 2-oxothiazolidine-4-carboxylate]
